Test results from patent USRE47350E1, “Pharmaceutical formulations containing dopamine receptor ligands” (Richter Gedeon Nyrt., priority 2008, dated 2019).
Read-outs that look alike come from different tables or passages of the source.

Experiments:
[1] = Hydrolytic degradation when formulated with commonly used excipients (general statements); format: physicochemical
Source text: The formation of a degradation product such as De-BOC in a pharmaceutical formulation is detrimental to activity. Moreover, if the amount of degradation product exceeds FDA guidelines, additional safety and toxicology testing must be undertaken. Thus, it is important that stable and bioavailable formulations containing, for example, cariprazine and its salts, be developed, in which the amount of degradation product present falls within accepted FDA guidelines.
The preparation of stable and bioavailable dosage forms containing compounds of formula (I) is; however, not straightforward.

[2] = Double-blind placebo controlled single dose pharmacokinetic study of cariprazine capsules in healthy male volunteers (Example 4); format: in vivo, human; conditions: for Cmax / Tmax / half-life / AUC(0-t): male, human, plasma, oral; for AUC(0-t): read-out: AUC0-168
Protocol: The pharmacokinetic parameters described herein include area under the plasma concentration-time curve (AUC0-t and AUC0-∞), maximum plasma concentration (Cmax), time of maximum plasma concentration (Tmax) and terminal elimination half-life (T1/2). The time of maximum concentration, Tmax, is determined as the time corresponding to Cmax. Area under the plasma concentration-time curve up to the time corresponding to the last measurable concentration (AUC0-t) is calculated by numerical integration using the linear trapezoidal rule as follows: The terminal half-life (T1/2) is calculated using the following equation: The area under the plasma concentration-time curve from time zero to infinity is calculated according to the following equation: A double-blind, placebo controlled single dose study of the pharmacokinetic parameters of cariprazine (capsules) in healthy male volunteers was conducted. [table] The composition of the capsules is given below in Table 31. The mean pharmacokinetic parameters observed after administration of a single dose of 0.5 to 2.5 mg cariprazine are shown below in Table 32.

[3] = Linear calculated pharmacokinetic parameters (Table 33); format: in vivo; conditions: human, plasma, po; for AUC(0-t): read-out: Mean AUC0-168
Protocol: Linear calculated pharmacokinetic parameters (based on the 2.0 mg data (Table 35, 80% of AUClast, Treatment I) for dosages greater than 2.0 mg and on the 0.5 mg data for dosages lower than 0.5 mg (Table 33) are shown in Table 33.

[4] = Single-center, randomized, open-label, parallel-group single-dose study, 2-mg tablet fasted/fed (Example 5); format: in vivo; conditions: both sexes, human, plasma, po, mean, single oral 2-mg tablet; for half-life: read-out: T½ (converted)
Protocol: The objectives of this study were (i) to assess the effect of food on the oral bioavailability of cariprazine (2-mg tablet), (ii) to assess the effect of gender on the oral bioavailability of cariprazine after a single oral dose (2-mg tablet), and (iii) to evaluate the pharmacokinetics of cariprazine and its metabolites after an oral dose (2-mg tablet). This clinical study was conducted as a single-center, randomized, open-label, parallel-group single-dose study. A total of 42 healthy male and female patients aged 18-45 years were selected, with an approximate male-to-female ratio of 1:1. Dosing occurred in two treatment sessions (Treatment 1 and Treatment 2) separated by 5 to 7 days. The subjects were randomized with ˜1:1 male-female ratio to receive one of the following two treatments: • Treatment 1: • Single oral dose of one 2-mg cariprazine tablet under fasted conditions (12 female, 11 male subjects) • Treatment 2: • Single oral dose of one 2-mg cariprazine tablet under fed conditions (10 female, 9 male subjects) Subjects were given the study drug with 240 mL of water in the clinic under fed/fasted conditions at 0800 hours on Day 1. Subjects taking Treatment 1 underwent a 10-hour overnight fast before dosing on Day 1 and continued fasting for an additional 4 hours postdose. Subjects taking Treatment 2 underwent a 10-hour overnight fast before eating a US Food and Drug Administration standardized high-fat breakfast at 0730 hours on Dosing Day 1. This study was 30 days in duration (Day −1 through the last pharmacokinetic (PK) blood sample collection on Day 29). Blood sampling was performed at the following times to determine cariprazine plasma concentrations: 0.0 (predose), 0.5, 1, 2, 3, 4, 6, 8, 12, 24, 36, 48, 72, 96, 168, 336, 504 and 672 hours postdose.

[5] = Multiple dose study in healthy male volunteers (Example 6); format: in vivo; conditions: human, plasma, fasted; for AUC: read-out: AUC0-τ
Protocol: Thirty-two healthy male subjects (mean age=24.9 years) were randomized into 4 groups (I-IV). In each group, 2 subjects received placebo and 6 subjects received one of the following treatments: • (I) 7 doses of 0.5 mg cariprazine administered every other day; • (II) 14 doses of 0.5 mg cariprazine every day; • (III) 2 doses of 0.5 mg cariprazine followed by 12 doses of 1.0 mg cariprazine every day; and • (IV) 21 doses of 1.0 mg cariprazine every day. Plasma samples were analyzed for cariprazine by a validated LC-MS/MS assay (Internal Standards: deuterated compounds; Sample preparation: Liquid-liquid extraction after alkalization; Sample Volume: 1 mL; Calibration Range: 0.05-25 ng/mL; Inonization: +ESI with MRM mode). The design of the study is shown below in Table 35. [table]

[6] = mean, single dose 0.5 mg capsules, fasted, Group III Period 1
[7] = mean, single dose 1 mg capsules, fasted, Group I Period 1
[8] = mean, single dose 1.5 mg capsules, fasted, Group II Period 2
[9] = mean, single dose 2 mg capsules, fasted, Group I Period 2
[10] = mean, single dose 2.5 mg capsules, fasted, Group II Period 1
[11] = 0.5 mg, Group I: 7 doses of 0.5 mg every other day
[12] = 0.5 mg, Group II: 14 doses of 0.5 mg every day
[13] = 1 mg, Group IV: 21 doses of 1.0 mg every day
[14] = Group III: 2 doses of 0.5 mg followed by 12 doses of 1.0 mg every day

## CN(C)C(=O)N[C@H]1CC[C@H](CCN2CCN(c3cccc(Cl)c3Cl)CC2)CC1.Cl [cariprazine hydrochloride, trans-1{4-[2-[4-(2,3-dichlorophenyl)-piperazin-1-yl]-ethyl]-cyclohexyl}-3,3-dimethyl-urea hydrochloride]
[1]
  stability toward hydrolytic degradation product formation: undergoes hydrolytic cleavage of the amide bond
[2]; single-dose range of 0.5 mg to 2.5 mg
  dose proportionality of exposure relative to mean AUC: approximate dose proportionality

## CN(C)C(=O)N[C@H]1CC[C@H](CCN2CCN(c3cccc(Cl)c3Cl)CC2)CC1 [cariprazine, trans-1{4-[2-[4-(2,3-dichlorophenyl)-piperazin-1-yl]-ethyl]-cyclohexyl}-3,3-dimethyl-urea]
[3]; dose 0.1 mg
  Cmax: 0.03 ng/mL
  AUC(0-t): 2.82 ng·h/mL
[3]; dose 0.25 mg
  Cmax: 0.09 ng/mL
  AUC(0-t): 1.05 ng·h/mL
[3]; dose 3 mg
  Cmax: 3.8 ng/mL
  AUC(0-t): 96.8 ng·h/mL
[3]; dose 4.5 mg
  Cmax: 5.7 ng/mL
  AUC(0-t): 145 ng·h/mL
[3]; dose 5 mg
  Cmax: 6.33 ng/mL
  AUC(0-t): 161 ng·h/mL
[3]; dose 6 mg
  Cmax: 7.6 ng/mL
  AUC(0-t): 194 ng·h/mL
[3]; dose 7.5 mg
  Cmax: 9.5 ng/mL
  AUC(0-t): 242 ng·h/mL
[3]; dose 9 mg
  Cmax: 11.4 ng/mL
  AUC(0-t): 290 ng·h/mL
[3]; dose 12.5 mg
  Cmax: 15.8 ng/mL
  AUC(0-t): 404 ng·h/mL
[3]; dose 15 mg
  Cmax: 19 ng/mL
  AUC(0-t): 484 ng·h/mL
[4]; Fed
  AUC(0-inf): 97 ng·h/mL
  AUC(0-t): 89.2 ng·h/mL
  Cmax: 1.72 ng/mL
  Tmax: 9.21 h
  half-life: 198 h
[4]; Treatment 1 (Fasted)
  AUC(0-inf): 89.9 ng·h/mL
  AUC(0-t): 80.7 ng·h/mL
  Cmax: 1.99 ng/mL
  Tmax: 4.91 h
  half-life: 203 h
[2]; [6]
  Cmax: 0.14 ng/mL
  Tmax: 6 h
  half-life: 217 h
  AUC(0-t): 14.1 ng·h/mL
[2]; [7]
  Cmax: 0.76 ng/mL
  Tmax: 3 h
  half-life: 185 h
  AUC(0-t): 35.4 ng·h/mL
[2]; [8]
  Cmax: 1.19 ng/mL
  Tmax: 3 h
  half-life: 130 h
  AUC(0-t): 46.7 ng·h/mL
[2]; [9]
  Cmax: 2.53 ng/mL
  Tmax: 3 h
  half-life: 130 h
  AUC(0-t): 95.3 ng·h/mL
[2]; [10]
  Cmax: 2.5 ng/mL
  Tmax: 4 h
  half-life: 138 h
  AUC(0-t): 97.5 ng·h/mL
[2]; single dose 0.5 to 2.5 mg
  Tmax: 3 to 6 h
[5]; [11]
  Cmax: 1.03 ng/mL
  AUC: 32.9 ng·h/mL
[5]; 0.5 mg, Group I: 7 doses of 0.5 mg every other day, read-out: tmax
  Tmax: 4 h
[5]; [12]
  Cmax: 1.42 ng/mL
  AUC: 25 ng·h/mL
[5]; 0.5 mg, Group II: 14 doses of 0.5 mg every day, read-out: tmax
  Tmax: 3.5 h
[5]; [13]
  Cmax: 3.9 ng/mL
  AUC: 56.8 ng·h/mL
[5]; 1 mg, Group IV: 21 doses of 1.0 mg every day, read-out: tmax (range only printed)
  Tmax: 2 to 3 h
[5]; [14]
  Cmax: 3.19 ng/mL
  AUC: 53.6 ng·h/mL
[5]; Group III: 2 doses of 0.5 mg followed by 12 doses of 1.0 mg every day, read-out: tmax
  Tmax: 4 h
